According to the supplement of paper PMC10627819:

How the values were obtained:
B. subtilis 168 [1] = test: fitness (endpoint OD595 vs no drug) (fraction); higher = more growth
Procedure, shortened: (§1)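 With the first reading as background, OD595 was measured every 30 min for 14 h in 384-well plates kept at 37 °C and inoculated at OD595 0.01. TSB, LB Lennox or CY was the medium. Fitness is the optical density at the transition into stationary phase divided by the robust mean of no-drug control wells, with a cap of 1.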

S. pneumoniae D39V [2] = test: as above
Procedure, shortened: as §1

S. aureus DSM 20231 [3] = test: as above
Procedure, shortened: as §1

B. subtilis 168 [4] = test: Bliss interaction score (quartile over a dose matrix) (fitness difference); higher = more antagonism (negative = synergy)
Procedure, shortened: (§2)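 Each plate was normalised to the robust mean of its own no-drug wells, using OD595 at entry into stationary phase, with values capped at 1. This normalised growth is the fitness value. The Bliss score is the difference between observed and product-expected fitness, with single-drug fitness inferred from the combination data and quartiles taken over technical, biological and donor/recipient replicates.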

S. pneumoniae D39V [5] = test: as above
Procedure, shortened: as §2

S. aureus DSM 20231 [6] = test: as above
Procedure, shortened: as §2

S. aureus Newman = test: as above
Procedure, shortened: as §2
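Wherever Bliss interaction score (quartile over a dose matrix) is given: first quartile when negative (synergy) and third quartile when positive (antagonism).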

O=C(O[C@@H]1Cc2c(O)cc(O)cc2O[C@@H]1c1cc(O)c(O)c(O)c1)c1cc(O)c(O)c(O)c1 [EGCG] + CC(=O)NC[C@H]1CN(c2ccc(N3CCOCC3)c(F)c2)C(=O)O1 [Linezolid]
fitness, one replicate
Conditions	first compound 6.25 µg/mL	first compound 12.5 µg/mL	first compound 25 µg/mL	first compound 50 µg/mL
B. subtilis 168 [1], partner 0.0625 µg/mL	0.854	0.61	0.286	–
S. aureus DSM 20231 [3], partner 1 µg/mL	–	0.0545	0.076	0.0554

fitness
Conditions	first compound 6.25 µg/mL	first compound 12.5 µg/mL	first compound 25 µg/mL	first compound 50 µg/mL
B. subtilis 168 [1], partner 0.125 µg/mL	0.582	0.482	–	–
B. subtilis 168 [1], partner 0.25 µg/mL	–	–	0.0697	–
B. subtilis 168 [1], partner 0.5 µg/mL	0.0716	0.0599	0.0583	–
S. aureus DSM 20231 [3], partner 0.125 µg/mL	–	0.745	0.816	0.708
S. aureus DSM 20231 [3], partner 0.25 µg/mL	–	0.551	0.559	0.563
S. aureus DSM 20231 [3], partner 0.5 µg/mL	–	0.223	0.25	0.159
S. pneumoniae D39V [2], partner 0.105 µg/mL	–	0.735	0.634	0.752
S. pneumoniae D39V [2], partner 0.2 µg/mL	–	0.533	0.517	0.411
S. pneumoniae D39V [2], partner 0.21 µg/mL	–	0.604	0.688	0.64
S. pneumoniae D39V [2], partner 0.4 µg/mL	–	0.283	0.249	0.218
S. pneumoniae D39V [2], partner 0.42 µg/mL	–	0.505	–	0.498
S. pneumoniae D39V [2], partner 0.8 µg/mL	–	0.12	0.0783	0.133

Conditions	Bliss interaction score
B. subtilis 168 [4]	0.0875
S. aureus DSM 20231 [6]	0.0748
S. aureus Newman	0.0955
S. pneumoniae D39V [5]	-0.1

O=C(O[C@@H]1Cc2c(O)cc(O)cc2O[C@@H]1c1cc(O)c(O)c(O)c1)c1cc(O)c(O)c(O)c1 [EGCG] + CCC[C@@H]1C[C@@H](C(=O)N[C@@H]([C@H]2O[C@H](SC)[C@H](O)[C@@H](O)[C@H]2O)[C@@H](C)O)N(C)C1 [Lincomycin]
fitness
Conditions	partner 0.1 µg/mL	partner 0.2 µg/mL	partner 0.215 µg/mL	partner 0.4 µg/mL	partner 0.43 µg/mL	partner 0.8 µg/mL	partner 0.86 µg/mL
B. subtilis 168 [1], first compound 6.25 µg/mL	0.889	0.88	–	0.908	–	–	–
S. aureus DSM 20231 [3], first compound 12.5 µg/mL	0.593	0.505	–	0.354	–	–	–
S. aureus DSM 20231 [3], first compound 25 µg/mL	0.592	0.553	–	0.306	–	–	–
S. aureus DSM 20231 [3], first compound 50 µg/mL	0.549	–	–	0.142	–	–	–
S. pneumoniae D39V [2], first compound 12.5 µg/mL	–	0.429	0.739	0.273	0.565	0.0193	0.389
S. pneumoniae D39V [2], first compound 25 µg/mL	–	0.483	0.713	0.439	0.668	0.0594	0.456
S. pneumoniae D39V [2], first compound 50 µg/mL	–	0.328	0.565	0.182	0.671	–	–

fitness, B. subtilis 168 [1], one replicate
Conditions	first compound 6.25 µg/mL	first compound 12.5 µg/mL	first compound 25 µg/mL
partner 0.8 µg/mL	0.908	0.761	0.709
partner 1.6 µg/mL	0.864	0.734	0.606

Conditions	Bliss interaction score
B. subtilis 168 [4]	0.102
S. aureus DSM 20231 [6]	-0.119
S. aureus Newman	-0.056
S. pneumoniae D39V [5]	-0.112

O=C(O[C@@H]1Cc2c(O)cc(O)cc2O[C@@H]1c1cc(O)c(O)c(O)c1)c1cc(O)c(O)c(O)c1 [EGCG] + COc1cc(Cc2cnc(N)nc2N)cc(OC)c1OC [Trimethoprim]
fitness, B. subtilis 168 [1], one replicate
Conditions	partner 0.1 µg/mL	partner 0.2 µg/mL	partner 0.4 µg/mL	partner 1 µg/mL	partner 2 µg/mL
first compound 6.25 µg/mL	0.856	0.624	0.464	0.346	0.485
first compound 12.5 µg/mL	0.438	0.252	0.235	0.127	0.13
first compound 25 µg/mL	0.199	0.102	0.0997	0.0869	0.0586

fitness
Conditions	partner 0.125 µg/mL	partner 0.25 µg/mL	partner 0.5 µg/mL	partner 1 µg/mL
B. subtilis 168 [1], first compound 6.25 µg/mL	0.611	–	0.508	–
B. subtilis 168 [1], first compound 12.5 µg/mL	0.363	0.426	0.41	–
B. subtilis 168 [1], first compound 25 µg/mL	0.232	–	0.244	–
S. aureus DSM 20231 [3], first compound 12.5 µg/mL	0.621	0.544	0.338	0.0444
S. aureus DSM 20231 [3], first compound 25 µg/mL	0.675	0.541	0.3	0.0338
S. aureus DSM 20231 [3], first compound 50 µg/mL	0.71	0.588	0.292	0.0285

Conditions	Bliss interaction score
B. subtilis 168 [4]	-0.0682
S. aureus DSM 20231 [6]	0.0729
S. aureus Newman	0.115
S. pneumoniae D39V [5]	0.12
